Data on 2 compounds can be found in ChEMBL document CHEMBL1151285, “Dammarane triterpenes from the hypocotyls and fruits of Ceriops tagal” (J Nat Prod, 2005).

What all share (format): functional, cell-based
Assay [1] is described as follows: Cytotoxicity against human BC cells by colorimetric assay.
In the next assay the test system is NCI-H187. Description: Cytotoxicity against human NCI-H187 cells by colorimetric assay.
For another assay, the system named is KB. Description: Cytotoxicity against human KB cells by colorimetric assay.

Values after ≈ are worked out from the molar mass of the structure shown.

In the case of `C=C(C)[C@@H]1CC[C@]2(C(=O)O)CC[C@]3(C)[C@H](CC[C@@H]4[C@@]5(C)CC[C@H](OC(=O)/C=C/c6ccc(O)c(OC)c6)C(C)(C)[C@@H]5CC[C@]43C)[C@@H]12`, the IC50 in assay [1] is 3 µg/mL (≈ 4.74 µM); with NCI-H187, 1.8 µg/mL (≈ 2.84 µM); in the assay on KB, 3.8 µg/mL (≈ 6 µM).

Regarding `Cc1c2ccncc2c(C)c2c1[nH]c1ccccc12` [ELLIPTECINE], the IC50 (in assay [1]; with NCI-H187; in the assay with KB) was 0.3 µg/mL (≈ 1.22 µM) in each case.

As usually defined, the IC50 is the concentration needed to halve the response being measured. The low end stands for greater potency in that assay, the high end for weaker potency in that assay.
